Laboratory results reported in patent US10533015B1, “Opioid receptor antagonist prodrugs” (Nirsum Laboratories, Inc., priority 2019, dated 2020).
Where two headings read alike, the source gives them in different places.

Assays:
[1] = Plasma stability assay, rat plasma; format: in vitro ADME; details: 10 μM, 37° C.
Protocol: Plasma stability determination of the test compounds in rat, dog, cynomolgus monkey and human plasma is performed using HPLC-MS. For rat, incubations are carried out in 96-well polypropylene plates in 5 aliquots of 70 μL each (one for each time point). […] Five time points are analyzed (0, 15, 120, 480 and 1440 min). For dog, monkey and human, test compounds (2 μM, final solvent concentration 1%) were also incubated at 37° C. and analyzed at five time points (0, 10, 30, 60 and 120 min). All incubations are performed in duplicates. The samples are analyzed by HPLC-MS. The percentage of parent compound remaining after incubation in plasma is determined.

[2] = Polymorph screening of solid state drug substances; details: for Dry method and appearance: after stirring 50 °C 72 hours, dried solid; for XRPD results (Dried): dried solid after 50 °C 72 hours; for Visual observation 50° C. / Visual observation RT: target conc. 100 mg/ml
[3] = heating temp. 40 °C, obs. temp. 40 °C
[4] = heating temp. 60 °C, obs. temp. 40 °C
[5] = compound after slurry in EtOAc, temperatures N/A
[6] = heating temp. 60 °C, obs. temp. 25 °C

Compound: C=C1CC[C@@]2(O)C3Cc4ccc(OC(=O)CCCCCCCCCCCCCCCCCCCCC)c5c4[C@@]2(CCN3CC2CC2)[C@H]1O5 [Compound 14, (4aS,7aS,12bS)-3-(cyclopropylmethyl)-4a-hydroxy-7-methylene-2,3,4,4a,5,6,7,7a-octahydro-1H-4,12-methanobenzofuro[3,2-e]isoquinolin-9-yl docosanoate]
- % remaining at time point ([1]; 0 min): 100%
- % remaining at time point ([1]; 15 min): 94%
- % remaining at time point ([1]; 120 min): 112%
- % remaining at time point ([1]; 480 min): 107%
- % remaining at time point ([1]; 1440 min): 120%
- Approximate Solubility (mg/mL) in Excipient: Cottonseed oil [3]: <50 mg/mL
- Approximate Solubility (mg/mL) in Excipient: Cottonseed oil [4]: <25 mg/mL
- Approximate Solubility (mg/mL) in Excipient: Ethanol [3]: 69 to 83 mg/mL
- Approximate Solubility (mg/mL) in Excipient: Sesame oil [3]: <51 mg/mL
- Approximate Solubility (mg/mL) in Excipient: Sesame oil [4]: <25 mg/mL
- Equilibrium solubility (mg/mL) Water [5]: <0.0005 mg/mL
- Equilibrium solubility (mg/mL) Water (compound after slurry in Heptane, temperatures N/A): <0.0005 mg/mL
- Dry method and appearance ([2]; Acetone): Evaporation/white powder
- XRPD results (Dried) ([2]; Acetone): Pattern A
- Visual observation 50° C. ([2]; Acetone): Clear
- Visual observation RT ([2]; Acetone): Slimy
- Dry method and appearance ([2]; EtOAc): Evaporation/white powder
- XRPD results (Dried) ([2]; EtOAc): Pattern A
- Visual observation 50° C. ([2]; EtOAc): Clear
- Visual observation RT ([2]; EtOAc): Slurry
- Dry method and appearance ([2]; Heptane): Centrifugation/white powder
- XRPD results (Dried) ([2]; Heptane): Pattern B
- Visual observation 50° C. ([2]; Heptane): Slurry
- Visual observation RT ([2]; Heptane): Slurry
- Dry method and appearance ([2]; Isopropanol): Evaporation/white powder
- XRPD results (Dried) ([2]; Isopropanol): Pattern A
- Visual observation 50° C. ([2]; Isopropanol): Clear
- Visual observation RT ([2]; Isopropanol): Clear
- Dry method and appearance ([2]; MTBE): Evaporation/white powder
- XRPD results (Dried) ([2]; MTBE): Pattern A
- Visual observation 50° C. ([2]; MTBE): Clear
- Visual observation RT ([2]; MTBE): Clear

Compound: C=C1CC[C@@]2(O)C3Cc4ccc(OC(=O)OCCCCCCCCCCCCCCCC)c5c4[C@@]2(CCN3CC2CC2)[C@H]1O5 [Compound 19, (4aS,7aS,12bS)-3-(cyclopropylmethyl)-4a-hydroxy-7-methylene-2,3,4,4a,5,6,7,7a-octahydro-1H-4,12-methanobenzofuro[3,2-e]isoquinolin-9-yl hexadecyl carbonate]
- % remaining at time point ([1]; 0 min): 100%
- % remaining at time point ([1]; 15 min): 70.1%
- % remaining at time point ([1]; 120 min): 71.5%
- % remaining at time point ([1]; 480 min): 43.8%
- % remaining at time point ([1]; 1440 min): 33.3%
- Approximate Solubility (mg/mL) in Excipient: Cottonseed oil [3]: 67 to 80 mg/mL
- Approximate Solubility (mg/mL) in Excipient: Ethanol [3]: 27 to 42 mg/mL
- Approximate Solubility (mg/mL) in Excipient: Sesame oil [3]: 103 to 137 mg/mL
- Dry method and appearance ([2]; Acetone): Evaporation/white powder
- XRPD results (Dried) ([2]; Acetone): Pattern A
- Visual observation 50° C. ([2]; Acetone): Clear
- Visual observation RT ([2]; Acetone): Slurry
- Dry method and appearance ([2]; EtOAc): Evaporation/white powder
- XRPD results (Dried) ([2]; EtOAc): Pattern A
- Visual observation 50° C. ([2]; EtOAc): Clear
- Visual observation RT ([2]; EtOAc): Slurry
- Dry method and appearance ([2]; Heptane): Evaporation/white powder
- XRPD results (Dried) ([2]; Heptane): Pattern A
- Visual observation 50° C. ([2]; Heptane): Clear
- Visual observation RT ([2]; Heptane): Slurry
- Dry method and appearance ([2]; Isopropanol): Evaporation/white powder
- XRPD results (Dried) ([2]; Isopropanol): Pattern A
- Visual observation 50° C. ([2]; Isopropanol): Clear
- Visual observation RT ([2]; Isopropanol): Slurry
- Dry method and appearance ([2]; MTBE): Evaporation/white powder
- XRPD results (Dried) ([2]; MTBE): Pattern A
- Visual observation 50° C. ([2]; MTBE): Clear
- Visual observation RT ([2]; MTBE): Clear

Compound: CCCCCCCCCCCCCCCCOC(=O)Oc1ccc2c3c1O[C@H]1C(=O)CC[C@@]4(O)C(C2)N(CC2CC2)CC[C@]314 [Compound 21, (4aS,7aR,12bS)-3-(cyclopropylmethyl)-4a-hydroxy-7-oxo-2,3,4,4a,5,6,7,7a-octahydro-1H-4,12-methanobenzofuro[3,2-e]isoquinolin-9-yl hexadecyl carbonate]
- % remaining at time point ([1]; 0 min): 100%
- % remaining at time point ([1]; 15 min): 73.5%
- % remaining at time point ([1]; 120 min): 68.3%
- % remaining at time point ([1]; 480 min): 59.8%
- % remaining at time point ([1]; 1440 min): 40.9%
- Approximate Solubility (mg/mL) in Excipient: Cottonseed oil [4]: 101 to 134.8 mg/mL
- Approximate Solubility (mg/mL) in Excipient: Ethanol [4]: 50 to 100 mg/mL
- Approximate Solubility (mg/mL) in Excipient: Sesame oil [4]: 101 to 134.5 mg/mL
- Dry method and appearance ([2]; Acetone): Evaporation/white powder
- XRPD results (Dried) ([2]; Acetone): Pattern A
- Visual observation 50° C. ([2]; Acetone): Clear
- Visual observation RT ([2]; Acetone): Slurry
- Dry method and appearance ([2]; EtOAc): Evaporation/white powder
- XRPD results (Dried) ([2]; EtOAc): Pattern A
- Visual observation 50° C. ([2]; EtOAc): Clear
- Visual observation RT ([2]; EtOAc): Slurry
- Dry method and appearance ([2]; Heptane): Evaporation/white powder
- XRPD results (Dried) ([2]; Heptane): Pattern A
- Visual observation 50° C. ([2]; Heptane): Clear
- Visual observation RT ([2]; Heptane): Slurry
- Dry method and appearance ([2]; Isopropanol): Evaporation/white powder
- XRPD results (Dried) ([2]; Isopropanol): Pattern A
- Visual observation 50° C. ([2]; Isopropanol): Clear
- Visual observation RT ([2]; Isopropanol): Slurry
- Dry method and appearance ([2]; MTBE): Evaporation/white powder
- XRPD results (Dried) ([2]; MTBE): Pattern A
- Visual observation 50° C. ([2]; MTBE): Clear
- Visual observation RT ([2]; MTBE): Clear

Compound: C=C1CC[C@@]2(O)C3Cc4ccc(OC(=O)OCCCCCCCCCCCCCC)c5c4[C@@]2(CCN3CC2CC2)[C@H]1O5 [Compound 31, (4aS,7aS,12bS)-3-(cyclopropylmethyl)-4a-hydroxy-7-methylene-2,3,4,4a,5,6,7,7a-octahydro-1H-4,12-methanobenzofuro[3,2-e]isoquinolin-9-yl tetradecyl carbonate]
- % remaining at time point ([1]; 0 min): 100%
- % remaining at time point ([1]; 15 min): 123.2%
- % remaining at time point ([1]; 120 min): 73.5%
- % remaining at time point ([1]; 480 min): 54.4%
- % remaining at time point ([1]; 1440 min): 46.4%
- Approximate Solubility (mg/mL) in Excipient: Cottonseed oil [6]: >416.9 mg/mL
- Approximate Solubility (mg/mL) in Excipient: Sesame oil [6]: >413.5 mg/mL
- Equilibrium solubility (mg/mL) Water [3]: <0.001 mg/mL
- Dry method and appearance ([2]; Acetone): Evaporation/white powder
- XRPD results (Dried) ([2]; Acetone): Pattern A
- Visual observation 50° C. ([2]; Acetone): Clear
- Visual observation RT ([2]; Acetone): Slurry
- Dry method and appearance ([2]; EtOAc): Evaporation/white powder
- XRPD results (Dried) ([2]; EtOAc): Pattern A
- Visual observation 50° C. ([2]; EtOAc): Clear
- Visual observation RT ([2]; EtOAc): Clear
- Dry method and appearance ([2]; Heptane): Evaporation/white powder
- XRPD results (Dried) ([2]; Heptane): Pattern A
- Visual observation 50° C. ([2]; Heptane): Clear
- Visual observation RT ([2]; Heptane): Slurry
- Dry method and appearance ([2]; Isopropanol): Evaporation/white powder
- XRPD results (Dried) ([2]; Isopropanol): Pattern A
- Visual observation 50° C. ([2]; Isopropanol): Clear
- Visual observation RT ([2]; Isopropanol): Clear
- Dry method and appearance ([2]; MTBE): Evaporation/white powder
- XRPD results (Dried) ([2]; MTBE): Pattern A
- Visual observation 50° C. ([2]; MTBE): Clear
- Visual observation RT ([2]; MTBE): Slurry

Compound: CCCCCCCCCCCCCCCC(=O)Oc1ccc2c3c1O[C@H]1C(=O)CC[C@@]4(O)C(C2)N(CC2CC2)CC[C@]314 [Compound 55, (4aS,7aR,12bS)-3-(cyclopropylmethyl)-4a-hydroxy-7-oxo-2,3,4,4a,5,6,7,7a-octahydro-1H-4,12-methanobenzofuro[3,2-e]isoquinolin-9-yl palmitate]
- % remaining at time point ([1]; 0 min): 100%
- % remaining at time point ([1]; 15 min): 77.3%
- % remaining at time point ([1]; 120 min): 47.2%
- % remaining at time point ([1]; 480 min): 27.1%
- % remaining at time point ([1]; 1440 min): 15.6%
- Approximate Solubility (mg/mL) in Excipient: Cottonseed oil [6]: <50 mg/mL
- Approximate Solubility (mg/mL) in Excipient: Cottonseed oil [4]: >400.1 mg/mL
- Approximate Solubility (mg/mL) in Excipient: Ethanol [4]: >401.1 mg/mL
- Approximate Solubility (mg/mL) in Excipient: Sesame oil [6]: <50 mg/mL
- Approximate Solubility (mg/mL) in Excipient: Sesame oil [4]: >394.8 mg/mL
- Equilibrium solubility (mg/mL) Water [5]: <0.0005 mg/mL
- Dry method and appearance ([2]; Acetone): Evaporation/white powder
- XRPD results (Dried) ([2]; Acetone): Pattern B
- Visual observation 50° C. ([2]; Acetone): Clear
- Visual observation RT ([2]; Acetone): Slurry
- Dry method and appearance ([2]; EtOAc): Evaporation/white powder
- XRPD results (Dried) ([2]; EtOAc): Pattern B
- Visual observation 50° C. ([2]; EtOAc): Clear
- Visual observation RT ([2]; EtOAc): Slurry
- Dry method and appearance ([2]; Heptane): Evaporation/white powder
- XRPD results (Dried) ([2]; Heptane): Pattern B
- Visual observation 50° C. ([2]; Heptane): Clear
- Visual observation RT ([2]; Heptane): Slurry
- Dry method and appearance ([2]; Isopropanol): Evaporation/white powder
- XRPD results (Dried) ([2]; Isopropanol): Pattern B
- Visual observation 50° C. ([2]; Isopropanol): Clear
- Visual observation RT ([2]; Isopropanol): Slurry
- Dry method and appearance ([2]; MTBE): Evaporation/white powder
- XRPD results (Dried) ([2]; MTBE): Pattern B
- Visual observation 50° C. ([2]; MTBE): Clear
- Visual observation RT ([2]; MTBE): Clear
